# Assay results published in patent publication US4888287A, “Rapid differentiation of fungi from bacteria using polyene antibiotics” (Eastman Kodak Company, priority 1986, dated 1989).
# Experiments:
# C. albicans [1] = test: Inhibition of RIND IX reduction by C. albicans (yeast) in solution (Example 1, Table II); format: cell-based, Candida albicans (ATCC 14053); conditions: Method 2 (antibiotic preincubated with cells 37° C., 30 min), 635 nm
# Experimental: The following materials were used in this example: stock solutions of RIND IX compound dispersion prepared as described above, glucose (10% in water), trimethyl-1,4-benzoquinone ETA (1.5 mg/ml methanol), and the antibiotics (25 mg/ml in dimethyl sulfoxide, except that filipin was 12.5 mg/ml of solvent). Bacteria and yeast were grown as described above. The approximate final cell concentrations in the assay mixture were 4.2×10^8 cells/ml of E. coli, 7.1×10^8 cells/ml of S. aureus, and 7×10^5 of C. albicans.
# Test solutions were prepared by adding in order: 1.2 ml of HEPES buffer, 50 μl glucose solution, 1.5 ml of RIND IX dispersion, 100 μl of antibiotic solution, 100 μl of cell suspension and 25 μl of ETA solution. Cell control solutions contained all reagents except antibiotics. Background controls consisted of both buffer and solution controls. The buffer control contained all reagents except antibiotics and cells. The solution control contained all reagents except cells. Optical density readings (OD) were measured at 635 nm at 0 minutes and after incubation at 37° C. for 30 minutes for test and Control solutions, and the change in density (ΔOD) was determined. […] The corrected percent inhibition is calculated by dividing the difference between the ΔOD obtained from the Control without antibiotic and the ΔOD of the test solution, by ΔOD of the Control without antibiotic. All readings were corrected by subtracting readings of the appropriate background control.
# Solutions containing 2.9 ml HEPES, 50 μl of the antibiotic solution, and 100 μl cell solution were incubated at 37° C. for 30 minutes, centrifuged for 10 minutes and decanted. The resulting pellet was then treated with 1.4 ml HEPES, 50 μl glucose solution, 1.5 ml RIND IX dispersion and 25 μl ETA solution, mixed well and the optical densities recorded as described above in Method 1. The corrected percent inhibition data was calculated as described in Method 1 above.
# S. aureus [2] = test: Inhibition of RIND XXXV reduction by S. aureus, microtitration plate, fluorescence (Example 2, Table III); format: cell-based, Staphylococcus aureus (ATCC 25923); conditions: Staphylococcus aureus, 0.5 h, S. aureus (gram +), 37° C., 30 min, read-out: Corrected Percent Inhibition
# Experimental: (§1) gram-negative microorganism Escherichia coli (ATCC 25922), gram-positive microorganism Staphylococcus aureus (ATCC 25923), and Candida albicans yeast cells (ATCC 14053), brain heart infusion broth (BHI) and Sabaroud's dextrose broth (SAB) from Difco Laboratories (Detroit, Michigan, U.S.A.), and Aspergillus flavus (ATCC 20047), a mold from American Type Culture Collection (Rockville, Maryland, U.S.A.).
# (§2) E. coli and S. aureus were grown overnight in BHI broth at 37° C. C. albicans and A. flavus were grown overnight at 25° C. in SAB broth with agitation. The cells were harvested by centrifugation, washed and resuspended in 0.05 molar N-2-hydroxyethylpiperazine-N'-2-ethanesulfonic acid (HEPES) buffer (pH 7.8).
# (§3) Dispersions containing RIND compounds were prepared by dissolving, for example, RIND VII from Table I above in N,N-dimethylformamide (DMF) at 16 mg compound per ml of solvent. An aliquot (250 μl) of the resulting solution was added to 500 μl of TRITON X-100 surfactant. This mixture was then added dropwise with stirring to 25 ml of 0.05 molar HEPES buffer. A solution containing a water-compatible RIND compound (for example, RIND XXXV) was prepared by dissolving the compound in N,N-dimethylformamide which had been acidified with 0.1% sulfuric acid (16 mg RIND compound per ml of solvent).
# (§4) A composition was prepared from the following components: 100 μl RIND XXXV solution (16 mg RIND compound per ml of acidified N,N-dimethylformamide), 200 μl glucose solution (10% in water), 200 μl trimethyl-1,4-benzoquinone ETA solution (1.5 mg/ml methanol) and 10 ml HEPES buffer.
# (§5) Test solutions were prepared using the following reagents: 50 μl HEPES buffer, 50 μl filipin polyene antibiotic (12.5 mg/ml dimethylsulfoxide)(serial dilutions of buffer and antibiotic solutions were performed to obtain various antibiotic concentrations), 50 μl of the appropriate cell suspensions, that is, E. coli (about 10^8 cells/ml), S. aureus (about 10^8 cells/ml), C. albicans (about 10^7 cells/ml) and A. flavus, and […] of the RIND composition described above.
# (§6) Control solutions were prepared as described in Example 1. Relative fluorescence was measured using a Dynatech MICROFLUOR Reader (Dynatech Laboratories, Alexandria, Virginia) modified to read at excitation 540 nm and emission 620 nm, at zero time and after incubation at 37° C. for 30 minutes. The change in relative fluorescence was then determined as the difference of the two values.
# C. albicans [3] = test: Inhibition of RIND XXXV reduction by C. albicans, microtitration plate, fluorescence (Example 2, Table III); format: cell-based, Candida albicans (ATCC 14053); conditions: Candida albicans, 0.5 h, C. albicans (yeast), 37° C., 30 min, read-out: Corrected Percent Inhibition
# Experimental: as §1, §2, §3, §4, §5, §6
# S. aureus [4] = test: Inhibition of MTT tetrazolium salt reduction by S. aureus, microtitration plate (Example 3, Table IV); format: cell-based, Staphylococcus aureus (ATCC 25923); conditions: Staphylococcus aureus, 0.5 h, S. aureus (gram +), 540 nm, 37° C., 30 min, read-out: Corrected Percent Inhibition
# Experimental: as §1, §2
# (§7) The differentiations of yeast and mold from bacteria were carried out in microtitration plates. The cell suspensions used were like those described in Example 2. The reducible compound used was 3-(4,5-dimethyl-2-thiazolyl)-2,5-diphenyl-2H-tetrazolium bromide (MTT). A composition containing MTT was prepared with the following components: 200 μl MTT solution (5 mg/ml methanol), 200 μl glucose solution (10% glucose in water), 200 μl trimethyl-1,4-benzoquinone ETA and 12 ml of HEPES buffer (0.05 molar, pH 7.8).
# as §5, with “components:” for “reagents:”, “suspension, i.e.” for “suspensions, that is,”, “MTT” for “RIND”, “noted” for “described”, “above. Cell Controls contained all reagents except the antibiotic. Background was measured with buffer. Solution Controls contained all reagents except cells.” for “above.”
# (§8) Optical density measurements were made at 540 nm using a commercially available spectrophotometer, and the change in optical density (ΔOD) was determined after 30 minutes at 37° C. […] It is apparent that the concentration effective for differentiation of yeast is different than for mold. However, it is well within the skill of a worker in the art to determine the appropriate concentration for a given test.
# A. flavus = test: Inhibition of MTT tetrazolium salt reduction by A. flavus (mold), microtitration plate (Example 3, Table IV); format: cell-based, Aspergillus flavus (ATCC 20047); conditions: Aspergillus flavus, 0.5 h, 540 nm, 37° C., 30 min, read-out: Corrected Percent Inhibition
# Experimental: as §1, §2, §7
# as §5, with “components:” for “reagents:”, “suspension, i.e.” for “suspensions, that is,”, “MTT” for “RIND”, “noted” for “described”, “above. Cell Controls contained all reagents except the antibiotic. Background was measured with buffer. Solution Controls contained all reagents except cells.” for “above.”
# as §8
# E. coli = test: Inhibition of RIND XXXV reduction by E. coli, dry analytical element (Example 4, Table V); format: cell-based, Escherichia coli (ATCC 25922); conditions: E. coli (gram -), 37° C., 30 min
# Experimental: as §1, §2
# Dispersions containing RIND compounds were prepared by dissolving, for example, RIND VII from Table I above in N,N-dimethylformamide (DMF) at 16 mg compound per ml of solvent. An aliquot (250 μl) of the resulting solution was added to 500 μl of TRITON X-100 surfactant. […]
# A standard paper punch was used to cut circular elements (about 0.6 cm in diameter) from the dried strips. […] Buffer solution was applied to separate elements for background readings.
# Relative fluorescence (excitation at 540 nm and emission at 620 nm) was measured using a Dynatech MICROFLUOR reader at zero time and after 30 minutes incubation at 37° C., and the change in relative fluorescence was determined.
compound,measurement,setting,value
"CCCCC[C@@H](O)[C@H]1C(=O)O[C@H](C)[C@@H](O)/C=C/C=C/C=C/C=C/C=C(\C)[C@@H](O)C[C@H](O)C[C@H](O)C[C@H](O)C[C@H](O)C[C@H](O)C[C@@H]1O [Filipin, filipin]",Corrected % Inhibition,C. albicans [1],97.5%
same,inhibition at 260 µg/mL,S. aureus [2]; 0.26 mg/ml,7.5%
same,inhibition at 520 µg/mL,S. aureus [2]; 0.52 mg/ml,8.6%
same,inhibition at 1040 µg/mL,S. aureus [2]; 1.04 mg/ml,14.8%
same,inhibition at 2080 µg/mL,S. aureus [2]; 2.08 mg/ml,18.2%
same,inhibition at 260 µg/mL,C. albicans [3]; 0.26 mg/ml,56.8%
same,inhibition at 520 µg/mL,C. albicans [3]; 0.52 mg/ml,71%
same,inhibition at 1040 µg/mL,C. albicans [3]; 1.04 mg/ml,80.7%
same,inhibition at 2080 µg/mL,C. albicans [3]; 2.08 mg/ml,86.8%
same,inhibition at 260 µg/mL,S. aureus [4]; 0.26 mg/ml,0%
same,inhibition at 520 µg/mL,S. aureus [4]; 0.52 mg/ml,0%
same,inhibition at 1040 µg/mL,S. aureus [4]; 1.04 mg/ml,0%
same,inhibition at 2080 µg/mL,S. aureus [4]; 2.08 mg/ml,0%
same,inhibition at 260 µg/mL,A. flavus; 0.26 mg/ml,0%
same,inhibition at 520 µg/mL,A. flavus; 0.52 mg/ml,10.3%
same,inhibition at 1040 µg/mL,A. flavus; 1.04 mg/ml,19%
same,inhibition at 2080 µg/mL,A. flavus; 2.08 mg/ml,98.3%
same,Corrected Percent Inhibition,E. coli,18%
